The nature of test [1]: Inhibition of HIV1 LAV gp120 binding to CD4 assessed as inhibition of CD4 expressing african green monkey BSC1 cells fusion to CXCR4 expressing mouse NIH3T3 cells after 2.5 hrs by beta-galactosidase assay. The class given is cell-based, Human immunodeficiency virus 1.
Test [2] can be described thus: Inhibition of HIV1 SF162 gp120 binding to CD4 assessed as inhibition of CD4 expressing african green monkey BSC1 cells fusion to CCR5 expressing mouse NIH3T3 cells after 2.5 hrs by beta-galactosidase assay. The class given is cell-based, Human immunodeficiency virus 1.
Test [3] relates to NIH3T3. The test can be described thus: Inhibition of HIV1 LAV gp120 binding to CD4 assessed as inhibition of CD4 expressing african green monkey BSC1 cells fusion to CXCR4 expressing mouse NIH3T3 cells treated after 15 to 90 mins of fusion measured after 2.5 hrs by beta-galactosidase assay. The class given is cell-based. The note with it: Human immunodeficiency virus 1.
For test [4], the system named is NIH3T3. The test is described as follows: Inhibition of HIV1 SF162 gp120 binding to CD4 assessed as inhibition of CD4 expressing african green monkey BSC1 cells fusion to CCR5 expressing mouse NIH3T3 cells treated after 15 to 90 mins of fusion measured after 2.5 hrs by beta-galactosidase assay. The class given is cell-based. The conditions noted are these: Human immunodeficiency virus 1.

The structures appear in SMILES notation. The source made the active and inactive calls. The calls are words filed in the database; no cut-off is given here.

In general, IC50 refers to the midpoint of a concentration-inhibition curve. Take `CC[C@H]1CCCC[C@@]2(C[C@@H]3CC[C@@H]4[C@H](C(=O)OCCCCCCCCCCCCCCCC(=O)N(CCCN)C[C@@H](O)CCN)[C@]5(CCC[C@@H](C)O5)N=C(N2)N34)O1` [CRAMBESCIDIN 800]: the half-maximal inhibitory concentration (IC50) in test [1] and in test [2] was 1000 nM throughout. In addition, the result in test [3] and in test [4] was inactive.

As for `CC[C@H]1C=CCC[C@@]2(C[C@@H]3CC[C@@H]4[C@H](C(=O)OCCCCCCCCCCCCCCCCCC(=O)N(CCCN)CCCC(N)=O)[C@]5(CCC[C@@H](C)O5)N=C(N2)N34)O1` [CRAMBESCIDIN 826], the IC50 in test [1] and in test [2] was 1000 nM in each case.

On to `CCCCCCCCCCCc1nc(=N)n2c(c1C(=O)OCCCCNC(=N)N)CCC2` [DEHYDROCRAMBINE A], for which the IC50 in test [1] and in test [2] was 35000 nM throughout.

As for `CC[C@H]1C=CCC[C@@]2(C[C@@H]3CC[C@@H]4[C@H](C(=O)OCCCCCCCCCCCCCCCC5=NCCCN5CC(O)CCN)[C@]5(CCC[C@@H](C)O5)N=C(N2)N34)O1` (stereo not given in full) [FROMIAMYCALIN], the IC50 in test [1] and in test [2] was 1000 nM throughout.

(Values after ChEMBL document CHEMBL1147251, “Crambescidin 826 and dehydrocrambine A: new polycyclic guanidine alkaloids from the marine sponge Monanchora sp. that inhibit HIV-1 fusion” (J Nat Prod, 2003).)
